Tests used:
Format in all cases: cell-based
FKBP* fused to Nluc = molecular target: T1, FKBP* fused to Nluc (Homo sapiens, UniProt P62942+Q96SW2, F37V); assay: Nluc/Fluc luciferase signal ratio assay of FKBP* degradation in 293FT cells; settings: wild type or CRBN−/− 293FT cells, indicated concentrations, 4 hours
T1 construct: expressed in transfected cells; host or cells: 293FT cells (wild type or CRBN-/-)
Method: FIG. 5A and FIG. 5B are graphs measuring the activity of a panel of dFKBP heterobifunctional compounds in cells expressing FKBP* fused to Nluc. Degradation of FKBP* is measured as a signal ration (Nluc/Fluc) between NANOluc and firefly luciferase from the same multicistronic transcript in wild type (FIG. 7A) or CRBN−/− ([…]) 293FT cells treated with indicated concentrations of dFKBPs for 4 hours. A decrease in the signal ratio indicates FKBP* (Nluc) degradation.
In an effort to identify potent and selective dFKPB heterobifunctional compounds, high throughput measurements of targeted FKBP* degradation were measured by surrogate levels of luciferase. Here, FKBP* is exogenously expressed as a multicistronic transcript with two types of luciferase: nano luciferase (NLuc) and firefly luciferase (FLuc) that allow for cell normalized quantification of FKBP* protein levels. Degradation of FKBP* is measured as a signal ration (Nluc/Fluc) in wild type (FIG. 4A) or CRBN−/− (FIG. 4B) 293FT cells treated with indicated concentrations of dFKBPs for 4 hours.

[1] = system: KRAS signaling (pMEK and pAKT); assay: Immunoblot of downstream surrogates of KRAS signaling in NIH3T3 cells expressing dTAG-KRAS
Method: FIG. 11 is an immunoblot of NIH3T3 cells expressing KRASG12V allele fused to FKBP* in the N-terminus or C-terminus. Cells were treated with 500 nM dFKBP7 for the indicated time. Cells were harvested and immunoblotted to measure degradation of FKBP*-KRASG12V and downstream surrogates of KRAS signaling (e.g. pMEK and pAKT).
(§1) FIG. 12 is an immunoblot of NIH3T3 cells expressing FKBP* fused to the N-terminus of KRASG12V treated with 1 uM of the indicated dFKBP heterobifunctional compounds for 24 hours. Cells were harvested and immunoblotted to measure degradation of FKBP*-KRASG12V and downstream surrogates of KRAS signaling (e.g. pMEK and pAKT).
as §1, with “FIG. 13” for “FIG. 12”, “with” for “with 1 uM of”, “indicated concentrations of dFKBP13” for “indicated dFKBP heterobifunctional compounds”
FIG. 14 is an immunoblot of NIH3T3 cells expressing FKBP* fused to the N-terminus of KRASG12V treated with 1 uM dFKBP13 for the indicated time. Cells were harvested and immunoblotted to measure degradation of FKBP*-KRASG12V and downstream surrogates of KRAS signaling (e.g. pMEK and pAKT).
Cells were treated with 500 nM dFKBP7 for the indicated time. Cells were harvested and immunoblotted to measure degradation of FKBP*-KRAS and downstream surrogates of KRAS signaling (e.g. pMEK and pAKT).
In an effort to identify the best performing dFKBP molecule, dTAG-KRAS degradation was profiled across a series of dFKBP molecules. Western blotting of NIH3T3 cells expressing dTAG-KRASG12V were treated with 1 μM of the indicated dFKBP heterobifunctional compounds for 24 hours. Cells were harvested and immunoblotted to measure degradation of FKBP*-KRAS and downstream surrogates of KRAS signaling (e.g. pMEK and pAKT).
Western blotting of NIH3T3 cells expressing FKBP* fused to the N-terminus of KRAS treated with the indicated concentrations of dFKBP13 for 24 hours. Cells were harvested and immunoblotted to measure degradation of FKBP*-KRAS and downstream surrogates of KRAS signaling (e.g. pMEK and pAKT).
To evaluate the kinetic control of targeted degradation of dTAG-KRAS, dFKBP13 was administered by increased duration. Western blotting of NIH3T3 cells expressing FKBP* fused to the N-terminus of KRAS treated with 1 μM dFKBP13 for the indicated time. Cells were harvested and immunoblotted to measure degradation of FKBP*-KRAS and downstream surrogates of KRAS signaling (e.g. pMEK and pAKT).
(§2) The dFKBP13 heterobifunctional compound potently degrades dTAG-KRAS mutant alleles. NIH3T3 cells were engineered to express KRAS alleles either WT or mutant forms of amino acid glycine 12 (G12C, G12D, and G12V). Western blotting of NIH3T3 cells expressing dTAG fused to the N-terminus of KRAS alleles were treated with 1 uM of dFKBP13 for 24 hours. Cells were harvested and immunoblotted to measure degradation of dTAG-KRAS and downstream surrogates of KRAS signaling (e.g. pMEK and pAKT).
as §2, with “express” for “express KRAS alleles”, “KRAS alleles (G13D, Q61L,” for “forms of amino acid glycine 12 (G12C, G12D,”, “Q61R).” for “G12V).”

[2] = system: NIH3T3 cells expressing dTAG-KRASG12V; assay: Propidium iodide cell cycle analysis of NIH3T3 cells expressing dTAG-KRASG12V; settings: 48 hours
Method: FIG. 20 is a bar graph illustrating NIH3T3 cells expressing dTAG-KRASG12V treated with dFKBP7 and dFKBP13 for 48 hours to induce targeted dTAG-KRASG12V degradation. Fixed cells were stained with propidium iodide and cell cycle analysis was performed.
NIH3T3 cells were engineered to express dTAG-KRASG12V. NIH3T3 cells expressing dTAG-KRASG12V were treated with dFKBP7 and dFKBP13 for 48 hours to induce targeted dTAG-KRASG12V degradation. Fixed cells were stained with propidium iodide and cell cycle analysis was performed.

[3] = system: NIH3T3 cells expressing FKBP*-KRASG12V; assay: Phase contrast imaging of NIH3T3 cells expressing dTAG-KRAS; settings: NIH3T3 overexpressing dTAG-KRAS, 24 hours
Method: FIG. 18A, FIG. 18B, FIG. 18C, and FIG. 18D are panels of phase contrast images of control NIH3T3 cells or NIH3T3 expressing FKBP* fused to the N-terminus of KRASG12V treated with DMSO of dFKBP13 for 24 hours.

T1 sequence (P62942 2-108 F37V limits assumed): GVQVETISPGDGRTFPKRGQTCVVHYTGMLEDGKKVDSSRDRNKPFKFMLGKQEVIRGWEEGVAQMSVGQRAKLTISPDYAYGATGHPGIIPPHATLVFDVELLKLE
T1 sequence (Q96SW2 whole entry, the tested form may be a part): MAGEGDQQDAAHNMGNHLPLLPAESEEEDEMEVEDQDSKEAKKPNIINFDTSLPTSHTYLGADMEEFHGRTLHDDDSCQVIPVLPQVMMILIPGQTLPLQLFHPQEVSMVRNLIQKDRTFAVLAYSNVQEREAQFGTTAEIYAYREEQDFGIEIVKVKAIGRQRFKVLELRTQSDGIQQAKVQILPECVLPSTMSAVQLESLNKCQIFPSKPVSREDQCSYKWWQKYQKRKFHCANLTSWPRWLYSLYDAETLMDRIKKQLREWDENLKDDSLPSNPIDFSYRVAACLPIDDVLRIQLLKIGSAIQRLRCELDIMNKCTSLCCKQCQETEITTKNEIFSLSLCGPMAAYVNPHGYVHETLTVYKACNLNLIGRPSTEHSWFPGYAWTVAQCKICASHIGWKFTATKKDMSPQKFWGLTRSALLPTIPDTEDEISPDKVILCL
T1 sequence (Q16531 whole entry partner, the tested form may be a part): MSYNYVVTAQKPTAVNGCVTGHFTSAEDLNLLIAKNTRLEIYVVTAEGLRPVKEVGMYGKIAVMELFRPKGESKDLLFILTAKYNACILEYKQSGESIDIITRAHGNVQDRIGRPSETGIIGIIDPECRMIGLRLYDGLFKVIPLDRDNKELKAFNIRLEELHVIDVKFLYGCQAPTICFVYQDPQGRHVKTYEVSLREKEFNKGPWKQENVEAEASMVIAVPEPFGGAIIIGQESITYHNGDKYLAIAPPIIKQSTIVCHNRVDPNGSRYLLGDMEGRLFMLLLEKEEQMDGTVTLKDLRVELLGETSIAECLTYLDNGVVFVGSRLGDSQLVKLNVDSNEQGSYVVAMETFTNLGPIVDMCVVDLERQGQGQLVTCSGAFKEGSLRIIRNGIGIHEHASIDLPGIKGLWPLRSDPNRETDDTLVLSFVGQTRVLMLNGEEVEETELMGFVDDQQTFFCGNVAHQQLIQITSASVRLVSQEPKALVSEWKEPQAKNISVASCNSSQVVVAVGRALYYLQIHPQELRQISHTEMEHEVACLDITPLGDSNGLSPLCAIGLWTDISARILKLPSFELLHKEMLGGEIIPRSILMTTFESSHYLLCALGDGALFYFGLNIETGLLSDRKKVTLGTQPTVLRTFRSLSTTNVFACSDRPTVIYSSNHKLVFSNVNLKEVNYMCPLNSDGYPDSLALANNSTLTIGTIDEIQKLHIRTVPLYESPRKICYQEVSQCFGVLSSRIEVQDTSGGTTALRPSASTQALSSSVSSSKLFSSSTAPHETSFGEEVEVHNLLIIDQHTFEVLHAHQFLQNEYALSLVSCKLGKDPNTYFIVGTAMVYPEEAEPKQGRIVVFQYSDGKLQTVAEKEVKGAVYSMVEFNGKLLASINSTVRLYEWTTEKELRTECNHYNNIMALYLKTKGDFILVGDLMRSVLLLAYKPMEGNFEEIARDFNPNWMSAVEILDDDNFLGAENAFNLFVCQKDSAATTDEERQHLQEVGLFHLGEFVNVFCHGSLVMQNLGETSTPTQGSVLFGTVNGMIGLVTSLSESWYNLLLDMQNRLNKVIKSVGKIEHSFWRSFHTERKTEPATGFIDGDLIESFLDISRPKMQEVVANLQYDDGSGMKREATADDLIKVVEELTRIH

Structure (SMILES)	FKBP* degradation as signal ratio (Nluc/Fluc) (FKBP* fused to Nluc)	p-AKT signal ([1]; NIH3T3 N-terminal dTAG-KRAS, 500 nM, indicated time)	cell cycle profile (S-phase entry) [2]	downstream signaling (pMEK and pAKT) ([1]; NIH3T3 FKBP*-KRASG12V, 1 uM, 24 hours)	time to inhibition of downstream signaling ([1]; NIH3T3 FKBP*-KRASG12V, 1 uM, post treatment) [h]	downstream signaling (pMEK and pAKT) ([1]; NIH3T3 dTAG-KRAS WT, G12C, G12D, G12V, 1 uM, 24 hours)	downstream signaling (pMEK and pAKT) ([1]; NIH3T3 dTAG-KRAS WT, G13D, Q61L, Q61R, 1 uM, 24 hours)	IC50 ([1]; read-out: IC50 of inhibition of downstream signaling, NIH3T3 FKBP*-KRASG12V, 24 hours) [nM]	cell morphology [3]
CC[C@H](C(=O)N1CCCC[C@H]1C(=O)O[C@H](CCc1ccc(OC)c(OC)c1)c1cccc(OCC(=O)NCCCOCCOCCOCCCNC(=O)COc2cccc3c2C(=O)N(C2CCC(=O)NC2=O)C3=O)c1)c1cc(OC)c(OC)c(OC)c1 (stereo partly shown) [dFKBP7]	effectively degrade FKBP* in a cereblon dependent manner	downstream decrease in p-AKT signal	diminished S-phase entry	–	–	–	–	–	–
CC[C@H](C(=O)N1CCCC[C@H]1C(=O)O[C@H](CCc1ccc(OC)c(OC)c1)c1cccc(OCC(=O)NCCCCCCOc2cccc3c2C(=O)N(C2CCC(=O)NC2=O)C3=O)c1)c1cc(OC)c(OC)c(OC)c1 (stereo partly shown) [dFKBP13]	–	–	diminished S-phase entry	inhibition of downstream signaling	≤ 1	potently inhibits downstream signaling	potently inhibits downstream signaling	> 100	morphologically revert back to the wild type (DMSO control) state
